Results from patent US20260115185A1, “QUINOLINE DERIVATIVES WHICH ACT AS KAPPA-OPIOID RECEPTOR ANTAGONISTS” (The Scripps Research Institute, priority 2023, published 2026).

Tests used:
[1] = molecular target: T1, kappa opioid receptor (KOR) (Homo sapiens, UniProt P41145); test: OPRKappa 1 Tango B-Arrestin Assay, antagonist mode (Tango OPRK1-bla U2OS cells, U50488 EC80 challenge); assay type: cell-based; conditions: for Selectivity (MOR/KOR): Kappa selectivity, MOR IC50 / KOR IC50; for IC50: antagonist mode, Tango OPRK1-bla U2OS cells, 6 nM U50488 challenge
T1 construct: host or cells: U2OS (Tango OPRK1-bla U2OS)
How it was run: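 Tango OPRK1-bla U2OS cells, β-arrestin recruitment read as β-lactamase FRET (CCF4-AM, 460/590 nm emission). Compounds, 10-point 1:3 series from nominal 10 µM in quadruplicate, preincubated 30 min at 37 °C, then challenged with U50488 at 6 nM final (EC80) for 4 h; percent inhibition from median ratio.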

mu opioid receptor (MOR) = molecular target: T2, mu opioid receptor (MOR) (Homo sapiens, UniProt P35372); test: OPRMu1 Discover X β-arrestin Assay, antagonist mode (U2OS cells, DAMGO EC80 challenge); assay type: cell-based
T2 construct: host or cells: U2OS (Discover X OPRMu1-U2OS, PathHunter)
How it was run: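 PathHunter U2OS cells with β-gal fragment-complementation readout for β-arrestin recruitment to OPRMu1. Cells were preincubated with compound (10-point, 1:3 series from nominal 10 micromolar) for 30 min at 37 °C, then challenged with 303 nM DAMGO (EC80) for 3 h. Luminescence gave percent inhibition.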

T1 sequence (P41145 whole entry): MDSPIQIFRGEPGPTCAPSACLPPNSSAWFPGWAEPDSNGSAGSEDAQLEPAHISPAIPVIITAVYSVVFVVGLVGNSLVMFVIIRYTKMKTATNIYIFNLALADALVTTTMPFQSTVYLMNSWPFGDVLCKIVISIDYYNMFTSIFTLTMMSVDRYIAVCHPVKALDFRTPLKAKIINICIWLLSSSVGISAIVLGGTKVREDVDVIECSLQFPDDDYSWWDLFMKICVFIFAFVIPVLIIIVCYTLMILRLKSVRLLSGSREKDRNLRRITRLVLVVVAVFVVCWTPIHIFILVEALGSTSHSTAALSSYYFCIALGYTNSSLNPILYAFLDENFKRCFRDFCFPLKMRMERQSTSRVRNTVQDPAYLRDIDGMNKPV
T2 sequence (P35372 whole entry): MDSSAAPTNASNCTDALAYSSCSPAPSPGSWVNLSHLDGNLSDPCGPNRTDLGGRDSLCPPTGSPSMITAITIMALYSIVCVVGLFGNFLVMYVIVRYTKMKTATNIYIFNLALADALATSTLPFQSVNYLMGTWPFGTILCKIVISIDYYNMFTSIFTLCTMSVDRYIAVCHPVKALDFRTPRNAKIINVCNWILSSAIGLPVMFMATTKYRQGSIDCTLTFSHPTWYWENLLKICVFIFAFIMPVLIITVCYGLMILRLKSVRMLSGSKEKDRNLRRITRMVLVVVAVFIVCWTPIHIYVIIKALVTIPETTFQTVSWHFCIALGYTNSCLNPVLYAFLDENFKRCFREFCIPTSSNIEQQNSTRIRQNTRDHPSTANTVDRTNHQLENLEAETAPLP

Compound | IC50 [1] | IC50 (mu opioid receptor (MOR)) | Selectivity (MOR/KOR) [1]
CCc1cc(F)c2nc(N3CCN(CC4CCOCC4)C[C@H]3CC)c(-c3nc(C)no3)c(C)c2c1 [Compound 34, (R)-5-(6-ethyl-2-(2-ethyl-4-((tetrahydro-2H-pyran-4-yl)methyl)piperazin-1-yl)-8-fluoro-4-methylquinolin-3-yl)-3-methyl-1,2,4-oxadiazole] | 10 to 100 nM | 100 to 1000 nM | + (less than 10-fold selectivity)
CCc1cc(-c2ccn(C)n2)c2nc(N3CCNC[C@H]3C)c(-c3nc(C)no3)c(C)c2c1 [Compound 104] | 10 to 100 nM | > 1000 nM | +++ (between 100- to 1000-fold selective)
CCc1cc(-c2ccnn2C)c2nc(N3CCNC4CC43)c(-c3ccn(C)n3)c(C)c2c1 (stereo not drawn) [Compound 24, 2-(2,5-diazabicyclo[4.1.0]heptan-2-yl)-6-ethyl-4-methyl-3-(1-methyl-1H-pyrazol-3-yl)-8-(1-methyl-1H-pyrazol-5-yl)quinoline] | ≥ 100 nM | > 1000 nM | + (less than 10-fold selectivity)
CCc1cc(F)c2nc(N3CC[C@@H](N[C@@H]4CCOC4)C[C@@H]3C)c(-c3ccn(C)n3)c(C)c2c1 [Compound 116] | 1 to 10 nM | > 1000 nM | ++++ (more than 1000-fold selectivity over MOR)
CCc1cc(F)c2nc(N3CCN(C(=O)[C@H](CO)N(C)C)C[C@H]3C)c(-c3cc(C)no3)c(C)c2c1 [Compound 168] | 1 to 10 nM | > 1000 nM | +++ (between 100- to 1000-fold selective)
CCc1cc(F)c2nc(N3CCC(N[C@H]4CCCC(F)(F)C4)CC3)c(-c3ccn(C)n3)c(C)c2c1 [Compound 73, (S)—N-(3,3-difluorocyclohexyl)-1-(6-ethyl-8-fluoro-4-methyl-3-(1-methyl-1H-pyrazol-3-yl)quinolin-2-yl)piperidin-4-amine] | 1 to 10 nM | 100 to 1000 nM | ++ (between 10- and 100-fold selectivity)
CCc1cc(F)c2nc(N3CCN(C(=O)C4CN(C)C4)C[C@H]3C)c(-c3nc(C)no3)c(C)c2c1 [Compound 45] | 10 to 100 nM | > 1000 nM | ++ (between 10- and 100-fold selectivity)
CCc1cc(F)c2nc(N3CCC(N[C@@H]4CCOC[C@@H]4F)CC3)c(-c3cc(C)n(C)n3)c(C)c2c1 [Compound 14, 1-(3-(1,5-dimethyl-1H-pyrazol-3-yl)-6-ethyl-8-fluoro-4-methylquinolin-2-yl)-N-((3R,4R)-3-fluorotetrahydro-2H-pyran-4-yl)piperidin-4-amine] | 1 to 10 nM | 100 to 1000 nM | +++ (between 100- to 1000-fold selective)
CCc1cc(F)c2nc(N3CCC(N[C@H]4CCOC[C@H]4F)CC3)c(-c3cc(C)n(C)n3)c(C)c2c1 [Compound 5, 1-(3-(1,5-dimethyl-1H-pyrazol-3-yl)-6-ethyl-8-fluoro-4-methylquinolin-2-yl)-N-((3S,4S)-3-fluorotetrahydro-2H-pyran-4-yl)piperidin-4-amine] | 1 to 10 nM | 100 to 1000 nM | +++ (between 100- to 1000-fold selective)
CCc1cc(F)c2nc(N3CCN(C(=O)[C@@H]4COCCN4C)C[C@H]3C)c(-c3nc(C)no3)c(C)c2c1 [Compound 185] | 10 to 100 nM | > 1000 nM | +++ (between 100- to 1000-fold selective)
CCc1cc(C#N)c2nc(N3CCC(NC4CC(F)(F)C4)CC3)c(-c3ccn(C)n3)c(C)c2c1 [Compound 79] | 1 to 10 nM | > 1000 nM | +++ (between 100- to 1000-fold selective)
CCc1cc(F)c2nc(N3CCN(C4CCOCC4)C[C@@H]3C)c(-c3nc(C)no3)c(C)c2c1 [Compound 27, (S)-5-(6-ethyl-8-fluoro-4-methyl-2-(2-methyl-4-(tetrahydro-2H-pyran-4-yl)piperazin-1-yl)quinolin-3-yl)-3-methyl-1,2,4-oxadiazole] | ≥ 100 nM | > 1000 nM | ++ (between 10- and 100-fold selectivity)
CCc1cc(F)c2nc(N3CCN(C(=O)C(C)(C)N4CCCC4)C[C@H]3C)c(-c3nc(C)no3)c(C)c2c1 [Compound 153] | 1 to 10 nM | > 1000 nM | +++ (between 100- to 1000-fold selective)
CCc1cc(F)c2nc(N3CCN(C4CC5(CCOCC5)C4)C[C@H]3C)c(-c3nc(C)no3)c(C)c2c1 [Compound 42] | 10 to 100 nM | > 1000 nM | +++ (between 100- to 1000-fold selective)
CCc1cc(F)c2nc(N3CCN(C[C@H]4CCCO4)C[C@H]3CC)c(-c3nc(C)no3)c(C)c2c1 [Compound 36] | 10 to 100 nM | > 1000 nM | ++ (between 10- and 100-fold selectivity)
CCc1cc(F)c2nc(N3CCN(CCC4CC(F)(F)C4)C[C@H]3C)c(-c3nc(C)no3)c(C)c2c1 [Compound 186] | 1 to 10 nM | 100 to 1000 nM | +++ (between 100- to 1000-fold selective)
Cc1cc(Cl)c2nc(N3CCN(CC4CCOCC4)C[C@H]3C)c(-c3nc(C)no3)c(C)c2c1 [Compound 51, (R)-5-(8-chloro-4,6-dimethyl-2-(2-methyl-4-((tetrahydro-2H-pyran-4-yl)methyl)piperazin-1-yl)quinolin-3-yl)-3-methyl-1,2,4-oxadiazole] | 1 to 10 nM | 100 to 1000 nM | +++ (between 100- to 1000-fold selective)
CCc1cc(F)c2nc(N3CCC(N[C@@H]4CCOC4)CC3)c(-c3cc(C)n(C)n3)c(C)c2c1 [Compound 66] | 1 to 10 nM | 100 to 1000 nM | +++ (between 100- to 1000-fold selective)
CCc1cc(F)c2nc(N3CCN(C[C@@H]4CCOC4)C[C@H]3C)c(-c3nc(C)no3)c(C)c2c1 [Compound 203] | 10 to 100 nM | > 1000 nM | +++ (between 100- to 1000-fold selective)
CCc1cc(-c2ccnn2C)c2nc(N3CCC(NCC4CC(F)(F)C4)CC3)c(-c3ccn(C)n3)c(C)c2c1 [Compound 91] | 1 to 10 nM | 10 to 100 nM | ++ (between 10- and 100-fold selectivity)
CCc1cc(F)c2nc(N3CCN(C4CC5(COC5)C4)C[C@H]3C)c(-c3nc(C)no3)c(C)c2c1 [Compound 41] | 10 to 100 nM | > 1000 nM | +++ (between 100- to 1000-fold selective)
CCc1cc(F)c2nc(N3CCN(C(=O)CN4CC[C@@H](F)C4)C[C@H]3C)c(-c3nc(C)no3)c(C)c2c1 [Compound 149] | 1 to 10 nM | 100 to 1000 nM | +++ (between 100- to 1000-fold selective)

The next lines start with results.

IC50 [1] | IC50 (mu opioid receptor (MOR)) | Compound | Selectivity (MOR/KOR) [1]
1 to 10 nM | > 1000 nM | CCc1cc(F)c2nc(N3CCN(C(=O)[C@H](C)N(CC)CC)C[C@H]3C)c(-c3nc(C)no3)c(C)c2c1 [Compound 158] | ++++ (more than 1000-fold selectivity over MOR)
< 1 nM | 10 to 100 nM | CCc1cc(F)c2nc(N3CC[C@H](N[C@@H]4CCCOC4)C[C@H]3C)c(-c3ccn(C)n3)c(C)c2c1 [Compound 122] | +++ (between 100- to 1000-fold selective)
< 1 nM | 10 to 100 nM | CCc1cc(-c2ccnn2C)c2nc(N3CCC(N[C@@H]4CCOC[C@@H]4F)CC3)c(-c3ccn(C)n3)c(C)c2c1 [Compound 20, 1-(6-ethyl-4-methyl-3-(1-methyl-1H-pyrazol-3-yl)-8-(1-methyl-1H-pyrazol-5-yl)quinolin-2-yl)-N-((3R,4R)-3-fluorotetrahydro-2H-pyran-4-yl)piperidin-4-amine] | ++ (between 10- and 100-fold selectivity)
1 to 10 nM | > 1000 nM | CCc1cc(F)c2nc(N3CCN(C[C@@H]4CCCO4)C[C@H]3C)c(-c3nc(C)no3)c(C)c2c1 [Compound 29] | +++ (between 100- to 1000-fold selective)
< 1 nM | 10 to 100 nM | CCc1cc(F)c2nc(N3CC[C@H](N[C@@H]4CCCOC4)C[C@H]3C)c(-c3cc(C)no3)c(C)c2c1 [Compound 142] | +++ (between 100- to 1000-fold selective)
< 1 nM | > 1000 nM | CCc1cc(F)c2nc(N3CC[C@@H](N[C@H]4CCOC4)[C@@H](F)C3)c(-c3ccn(C)n3)c(C)c2c1 [Compound 193, (3S,4R)-1-(6-ethyl-8-fluoro-4-methyl-3-(1-methyl-1H-pyrazol-3-yl)quinolin-2-yl)-3-fluoro-N—((S)-tetrahydrofuran-3-yl)piperidin-4-amine] | ++++ (more than 1000-fold selectivity over MOR)
1 to 10 nM | > 1000 nM | CCc1cc(F)c2nc(N3CC[C@H](N[C@@H]4CCCOC4)[C@@H](C)C3)c(-c3ccn(C)n3)c(C)c2c1 [Compound 112] | +++ (between 100- to 1000-fold selective)
< 1 nM | > 1000 nM | CCc1cc(-c2ccnn2C)c2nc(N3CCC(N[C@H]4CCOC4)CC3)c(-c3ccn(C)n3)c(C)c2c1 [Compound 86] | +++ (between 100- to 1000-fold selective)
< 1 nM | 10 to 100 nM | CCc1cc(-c2cc(C)nn2C)c2nc(N3CCC(N[C@@H]4CCOC4)CC3)c(-c3ccn(C)n3)c(C)c2c1 [Compound 95] | +++ (between 100- to 1000-fold selective)
< 1 nM | > 1000 nM | CCc1cc(F)c2nc(N3CCN(CC(C)C)C[C@H]3C)c(-c3nc(C)no3)c(C)c2c1 [Compound 25] | +++ (between 100- to 1000-fold selective)
